Measurements taken from article PMC4941420, “A Rational Approach for the Identification of Non-Hydroxamate HDAC6-Selective Inhibitors” (Scientific Reports, 2016).

What was measured:
[1] = target: T1, HDAC6 (Homo sapiens, UniProt Q9UBN7); experiment: In vitro enzymatic assay HDAC6 (Fluor de Lys); type: biochemical; details: for HDAC6 % of inhibition at 100 µM / inhibition at 100 µM: mean ± SD (n=3); for inhibition at 100 µM: read-out: HDAC6 % of inhibition at 100 µM; for IC50: average of at least 2 independent experiments in duplicates ± SEM; for selectivity index (SI) with respect to HDAC2: HDAC6 versus HDAC2
T1 construct: purchased Sigma Aldrich or Reaction Biology Corporation
T1 sequence (Q9UBN7 1-1215): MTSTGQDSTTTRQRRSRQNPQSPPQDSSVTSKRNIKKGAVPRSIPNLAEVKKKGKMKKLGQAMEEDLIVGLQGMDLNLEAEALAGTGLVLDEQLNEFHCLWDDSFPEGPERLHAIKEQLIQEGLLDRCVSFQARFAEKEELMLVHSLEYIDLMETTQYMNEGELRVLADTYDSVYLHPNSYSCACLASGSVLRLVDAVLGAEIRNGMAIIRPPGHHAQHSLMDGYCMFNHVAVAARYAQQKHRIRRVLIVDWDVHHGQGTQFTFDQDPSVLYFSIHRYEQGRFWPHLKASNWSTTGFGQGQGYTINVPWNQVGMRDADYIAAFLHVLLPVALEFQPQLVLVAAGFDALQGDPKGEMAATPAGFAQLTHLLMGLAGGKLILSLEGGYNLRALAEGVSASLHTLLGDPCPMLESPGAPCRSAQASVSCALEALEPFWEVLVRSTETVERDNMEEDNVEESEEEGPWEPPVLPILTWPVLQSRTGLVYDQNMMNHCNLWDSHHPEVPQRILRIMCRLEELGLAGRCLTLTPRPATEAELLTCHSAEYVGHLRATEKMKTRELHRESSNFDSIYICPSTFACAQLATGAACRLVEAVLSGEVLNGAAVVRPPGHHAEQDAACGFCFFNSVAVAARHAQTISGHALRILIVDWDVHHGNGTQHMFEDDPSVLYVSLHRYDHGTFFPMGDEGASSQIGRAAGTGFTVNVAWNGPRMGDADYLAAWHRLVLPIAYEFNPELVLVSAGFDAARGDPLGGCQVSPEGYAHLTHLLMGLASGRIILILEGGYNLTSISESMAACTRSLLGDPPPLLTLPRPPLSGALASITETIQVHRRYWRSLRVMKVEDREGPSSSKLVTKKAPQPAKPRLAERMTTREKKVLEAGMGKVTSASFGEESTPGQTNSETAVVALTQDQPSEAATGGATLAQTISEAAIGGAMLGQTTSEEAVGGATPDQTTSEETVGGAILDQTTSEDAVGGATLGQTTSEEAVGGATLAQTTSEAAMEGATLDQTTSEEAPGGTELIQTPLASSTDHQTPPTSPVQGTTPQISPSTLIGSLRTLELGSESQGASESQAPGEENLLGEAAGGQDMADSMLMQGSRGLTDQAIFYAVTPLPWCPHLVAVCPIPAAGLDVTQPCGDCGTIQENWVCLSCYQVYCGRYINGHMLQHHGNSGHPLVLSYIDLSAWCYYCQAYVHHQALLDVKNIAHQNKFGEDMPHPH

[2] = test system: class I HDACs (HeLa nuclear extracts); experiment: HDAC activity of HeLa nuclear extracts (Fluor de Lys); type: biochemical, human
[3] = target: T2, HDAC8 (Homo sapiens, UniProt Q9BY41); experiment: In vitro enzymatic assay HDAC8 (Fluor de Lys); type: biochemical; details: average of at least 2 independent experiments in duplicates ± SEM
T2 construct: purchased Sigma Aldrich or Reaction Biology Corporation
T2 sequence (Q9BY41 1-377): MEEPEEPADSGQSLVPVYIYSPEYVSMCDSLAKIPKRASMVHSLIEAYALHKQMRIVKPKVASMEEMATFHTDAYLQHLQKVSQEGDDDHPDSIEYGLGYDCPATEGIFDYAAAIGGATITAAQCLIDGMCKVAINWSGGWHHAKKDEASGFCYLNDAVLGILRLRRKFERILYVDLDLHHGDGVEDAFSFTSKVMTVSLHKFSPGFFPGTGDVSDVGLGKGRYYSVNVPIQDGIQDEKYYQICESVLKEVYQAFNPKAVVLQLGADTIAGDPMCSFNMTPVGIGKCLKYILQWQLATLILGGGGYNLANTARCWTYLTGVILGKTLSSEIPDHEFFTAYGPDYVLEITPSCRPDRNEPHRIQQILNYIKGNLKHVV

[4] = target: T3, HDAC2 (Homo sapiens, UniProt Q92769); experiment: In vitro enzymatic assay HDAC2 (Fluor de Lys); type: biochemical; details: average of at least 2 independent experiments in duplicates ± SEM
T3 construct: purchased Sigma Aldrich or Reaction Biology Corporation

[5] = target: T4, HDAC4 (Homo sapiens, UniProt P56524); experiment: In vitro enzymatic assay HDAC4 (Fluor de Lys); type: biochemical; details: average of at least 2 independent experiments in duplicates ± SEM
T4 construct: purchased Sigma Aldrich or Reaction Biology Corporation

[6] = 100 μM, average of at least 3 independent experiments in duplicates (Table 1)

T3 sequence (Q92769 whole entry): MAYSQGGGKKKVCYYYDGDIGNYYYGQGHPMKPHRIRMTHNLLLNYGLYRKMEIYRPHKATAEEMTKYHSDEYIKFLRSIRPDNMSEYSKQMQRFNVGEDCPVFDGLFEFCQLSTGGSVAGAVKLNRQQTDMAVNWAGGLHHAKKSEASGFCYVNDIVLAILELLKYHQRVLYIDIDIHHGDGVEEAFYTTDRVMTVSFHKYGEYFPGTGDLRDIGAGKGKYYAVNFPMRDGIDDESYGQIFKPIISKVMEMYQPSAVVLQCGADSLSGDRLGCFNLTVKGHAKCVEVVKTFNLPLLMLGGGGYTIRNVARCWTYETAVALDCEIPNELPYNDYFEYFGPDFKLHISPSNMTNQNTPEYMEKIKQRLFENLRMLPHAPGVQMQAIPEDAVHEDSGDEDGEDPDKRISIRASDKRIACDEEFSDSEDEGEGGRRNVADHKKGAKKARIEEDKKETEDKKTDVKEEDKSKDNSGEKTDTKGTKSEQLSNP
T4 sequence (P56524 whole entry): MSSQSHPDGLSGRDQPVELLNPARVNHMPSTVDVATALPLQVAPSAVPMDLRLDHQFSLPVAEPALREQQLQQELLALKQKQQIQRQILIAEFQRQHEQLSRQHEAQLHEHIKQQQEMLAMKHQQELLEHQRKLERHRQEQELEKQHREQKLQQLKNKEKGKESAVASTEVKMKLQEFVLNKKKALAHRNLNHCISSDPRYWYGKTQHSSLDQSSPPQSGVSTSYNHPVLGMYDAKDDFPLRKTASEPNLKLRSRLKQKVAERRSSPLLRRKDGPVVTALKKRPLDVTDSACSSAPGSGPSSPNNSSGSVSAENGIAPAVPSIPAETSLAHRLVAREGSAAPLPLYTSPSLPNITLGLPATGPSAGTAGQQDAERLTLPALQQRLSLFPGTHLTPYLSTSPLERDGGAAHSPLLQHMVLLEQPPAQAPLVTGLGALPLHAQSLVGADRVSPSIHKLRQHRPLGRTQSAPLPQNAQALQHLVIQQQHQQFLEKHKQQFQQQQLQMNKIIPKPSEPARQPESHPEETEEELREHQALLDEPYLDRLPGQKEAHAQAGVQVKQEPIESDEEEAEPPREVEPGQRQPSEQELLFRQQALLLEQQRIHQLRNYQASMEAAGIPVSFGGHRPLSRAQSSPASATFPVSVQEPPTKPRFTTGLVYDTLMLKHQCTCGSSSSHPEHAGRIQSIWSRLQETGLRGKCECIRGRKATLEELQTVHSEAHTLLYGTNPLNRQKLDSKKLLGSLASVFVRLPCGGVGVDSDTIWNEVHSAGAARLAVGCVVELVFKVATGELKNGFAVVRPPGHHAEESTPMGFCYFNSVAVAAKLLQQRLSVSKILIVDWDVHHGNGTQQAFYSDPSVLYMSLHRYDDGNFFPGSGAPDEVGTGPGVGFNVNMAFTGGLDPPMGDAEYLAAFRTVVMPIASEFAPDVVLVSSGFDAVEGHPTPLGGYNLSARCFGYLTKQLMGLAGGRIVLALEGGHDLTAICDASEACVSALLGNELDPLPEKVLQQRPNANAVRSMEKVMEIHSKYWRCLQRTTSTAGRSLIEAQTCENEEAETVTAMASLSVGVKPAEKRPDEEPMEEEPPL

`COc1ccccc1OCc1ccc(C(=O)NN)o1` [AK-15] was tested, and the “HDAC6 % of inhibition at 100 µM” value [1] was 42.1 ± 23.0% and the “HeLa % of inhibition at 100 μM” value ([2]; 100 µM, mean ± SD (n=3) (Table S6)) was -2.6 ± 3.0%.

`CC(C)Oc1cccc(C(=O)NN)c1` [AK-10] was tested, and the “HDAC6 % of inhibition at 100 µM” value [1] was 13.9 ± 17.9%.

With `N/N=C1\CCCc2c1[nH]c1ccc(C(=O)NN)cc21` [AH-1] the “HDAC6 % of inhibition at 100 µM” value [1] was 26.9 ± 6.1%.

For `CC(C)c1ccc(OCc2cccc(C(=O)NN)c2)cc1` [AK-1], the “HDAC6 % of inhibition at 100 µM” value [1] was 18.3 ± 0.1%.

With `CCOc1cc(/C=N/O)cc(Cl)c1OC` [AK-9] the “HDAC6 % of inhibition at 100 µM” value [1] was 8.0 ± 4.6%.

For `Cc1nn(Cc2ccc(C(=O)NN)o2)c(C)c1Cl` [AK-11], the “HDAC6 % of inhibition at 100 µM” value [1] was 5.3 ± 19.9%.

In the case of `NNC(=O)c1cc(Br)cs1` [AK-20], the “HDAC6 % of inhibition at 100 µM” value [1] is reported as 22.3 ± 8.7%.

In the case of `NNC(=O)c1ccc(Cn2cc(Br)cn2)cc1` [AK-21], the IC50 [3] is reported as 74.9 ± 0.8 µM, the inhibition at 100 µM [1] is reported as 67.9 ± 7.8% and the IC50 [1] is reported as 30.9 ± 2.1 µM. The IC50 [4] was 201.7 ± 1.9 µM, the IC50 [5] was greater than 300 µM and the “HeLa % of inhibition at 100 μM” value [2, 6] was 14.7 ± 11.6%.

With `COc1cc(/C=N/NC(N)=S)ccc1OCC(=O)Nc1ccc(C)c(C)c1` [AN-3] the “HDAC6 % of inhibition at 100 µM” value [1] was -4.0 ± 3.9% Self-fluorescence.

In the case of `C=CCn1c2ccccc2c2nnc(SC(CC)C(=O)Nc3ccc(S(N)(=O)=O)cc3)nc21` (stereo not shown) [AG-3], the “HDAC6 % of inhibition at 100 µM” value [1] is reported as 16.3 ± 0. %.

With `O=C(CSc1nc2cc(Cl)c3cccnc3c2o1)c1ccc(O)c(O)c1` [AO-1] the IC50 [3] was 35.1 ± 1.1 µM, the inhibition at 100 µM [1] was 66.1 ± 6.9% and the “selectivity index (SI) with respect to HDAC2” value [1] was greater than 50. The IC50 [1] was 16.9 ± 4.9 µM, the IC50 [4] was greater than 1000 µM and the IC50 [5] was 73.5 ± 6 µM. For the same compound, the “HeLa % of inhibition at 100 μM” value [2, 6] was 20.7 ± 4.0%.

Compound `COc1ccccc1OCc1ccc(C(=O)NN)cc1` [AK-5] has an IC50 [3] of 130 ± 9 µM, an inhibition at 100 µM [1] of 64.4 ± 1.3% and an IC50 [1] of 45.6 ± 1.5 µM. For the same compound, the IC50 [4] was greater than 200 µM, the IC50 [5] was greater than 300 µM and the “HeLa % of inhibition at 100 μM” value [2, 6] was 5.8 ± 1.3%.

`NNC(=O)c1cccc(COc2cc(Cl)ccc2Cl)c1` [AK-6] was tested, and the “HDAC6 % of inhibition at 100 µM” value [1] was 15.3 ± 0.5%.

With `COc1cc(/C=C2/SC(N)=NC2=O)ccc1OCc1ccc(Cl)cc1Cl` [AG-2] the “HDAC6 % of inhibition at 100 µM” value [1] was -2.8 ± 9.7% Self-fluorescence.

For `NNC(=O)CC12CC3CC(C1)CC(n1ncnn1)(C3)C2` [AK-13], the “HDAC6 % of inhibition at 100 µM” value [1] was 23.7 ± 9.3%.

With `COc1cc(/C=N/NC(N)=S)ccc1OCC(=O)Nc1ccc(Br)c(Cl)c1` [AN-2] the “HDAC6 % of inhibition at 100 µM” value [1] was 4.9 ± 8.2% Self-fluorescence.

In the case of `NNC(=O)c1ccc(COc2ccc(Cl)cc2Cl)o1` [AK-25], the “HDAC6 % of inhibition at 100 µM” value [1] is reported as 29.1 ± 10.3%.

With `CC(C)C12CC3CC(CC(C(=O)NN)(C3)C1)C2` [AF-1] the “HDAC6 % of inhibition at 100 µM” value [1] was 5.2 ± 1.5%.

`CC1(C)Cc2ccccc2C2=C/C(=N/O)C(=O)N21` [AG-1] was tested, and the IC50 [3] was 0.3 ± 0.005 µM, the inhibition at 100 µM [1] was 83.8 ± 2.3% and the “selectivity index (SI) with respect to HDAC2” value [1] was greater than 50. For the same compound, the IC50 [1] was 21.7 ± 1.2 µM, the IC50 [4] was greater than 1000 µM and the IC50 [5] was 111 ± 3.5 µM. For the same compound, the “HeLa % of inhibition at 100 μM” value [2, 6] was 38.2 ± 1.1%.

For `NNC(=O)c1cccc(COc2ccccc2Br)c1` [AK-22], the “HDAC6 % of inhibition at 100 µM” value [1] was 25.4 ± 9.7%.
